Measurements as given in patent US20200399308A1, “COMPOUNDS AND METHODS FOR ELICITING ANTIMICROBIAL ACTIVITY” (Technion Research & Development Foundation Limited, priority 2018, published 2020).
≈ marks a conversion by molar mass, not a printed value. Where two headings read alike, the source gives them in different places. Non-standard residues stand in square brackets, D forms with d. Residues, ends and D or L forms follow the SMILES beside them. *: point of attachment. 12Ado = NCCCCCCCCCCCC(=O)O; Decanoyl = CCCCCCCCCC(=O)*

Legend:
[1] = Charge at physiological pH (Q); format: physicochemical
[2] = Hydrophobicity (H) by HPLC elution from C18 column; format: physicochemical; details: percentage of acetonitrile required for elution
[3] = Hemolytic assay; format: cell-based; details: fresh mouse red blood cells (1%); hemolysis of 50% of mouse red blood cells (1%) after 3 hours in PBS; read-out: LC50, fifty percent lethal concentration (hemolysis)
Description: (§1) Organization of the compounds in aqueous solution was assessed by light-scattering measurements in phosphate buffered saline (PBS; 10 mM Na2HPO4, 150 mM NaCl, pH=7.0). Hemolytic assays were performed as described elsewhere, using fresh mouse red blood cells.
(§2) The mean value (±SD) is shown for Compound C; Minimum inhibitory concentration (MIC) of compounds required to inhibit bacterial proliferation after overnight incubation.

[4] = system: Escherichia coli mutant ML-35p; experiment: Outer and cytoplasmic membrane permeabilization (nitrocefin / ONPG); format: cell-based; details: E. coli ML-35p, buffer, 16 minutes after addition
Description: Membrane permeabilization was assessed using E. coli ML-35p as described elsewhere, to monitor the ability of the compounds to perturb the outer and/or cytoplasmic membranes. Reported data were obtained from ≥2 independent experiments performed in duplicate.
Additional support for this view was obtained by comparing the compounds' susceptibility to damage gram-negative bacteria membranes, using the E. coli mutant ML-35p. Widely described in the literature, the mutant was considered herein as representative of all gram-negative bacteria, rather than a specific species. This mutant is constitutive for cytoplasmic β-galactosidase, lacks lactose permease, and expresses a plasmid-encoded periplasmic β-lactamase. Two chromogenic reporter molecules (nitrocefin and 2-nitrophenyl β-d-galactopyranoside, respectively, absorbing at 486 and 420 nm) were used to monitor permeabilization of the outer membrane and/or cytoplasmic membrane in a single assay.

[5] = system: Salmonella enterica serovar Typhimurium 14028; experiment: Minimal inhibitory concentration; format: cell-based
Description: (§3) Minimal inhibitory concentrations (MICs) were determined as previously described. […] MICs were determined by microdilution susceptibility testing in 96-well plates (by Nunc) using inocula of 10^5 bacteria per ml. Cell populations were evaluated by optical density measurements at 620 nm and were calibrated against a set of standards. Hundred (100) μl of a bacterial suspension were added to 100 μl of culture medium (control) or to 100 μl of culture medium containing various tested compound concentrations in 2-fold serial dilutions. Inhibition of proliferation was determined by optical density measurements at 620 nm after an incubation period of 24 hours at 37° C. Data were obtained from ≥2 independent experiments performed in duplicate.
as §2

[6] = system: Klebsiella pneumoniae C2 (carbapenemase 2-producing strain); experiment: Minimal inhibitory concentration; format: cell-based
Description: as §3, §2

[7] = system: Escherichia coli 25922; experiment: Minimal inhibitory concentration; format: cell-based
Description: as §3, §2

[8] = system: Pseudomonas aeruginosa 11662; experiment: Minimal inhibitory concentration; format: cell-based
Description: as §3, §2

[9] = system: Pseudomonas aeruginosa 11816; experiment: Minimal inhibitory concentration; format: cell-based
Description: as §3, §2

[10] = system: Escherichia coli ML35p; experiment: Minimal inhibitory concentration; format: cell-based; details: Ec ML35p, overnight incubation
Description: as §3, §2

[11] = system: Klebsiella pneumoniae 1287; experiment: Minimal inhibitory concentration; format: cell-based
Description: as §3, §2

[12] = system: Salmonella enterica serovar Choleraesuis 7308; experiment: Minimal inhibitory concentration; format: cell-based
Description: as §3, §2

[13] = Critical aggregation concentration by light scattering in PBS; format: physicochemical; details: light scattering in phosphate-buffered saline
Description: as §1, §2

[14] = Subcutaneous 25 mg/kg, published data, cited from earlier work
[15] = system: Escherichia coli 25922; experiment: Mouse peritonitis-sepsis model; format: in vivo; details: neutropenic ICR mice; erythromycin 100 mg/kg s.c. + Compound B […] s.c.
Description: A mouse peritonitis-sepsis model was created as described elsewhere. Infection was obtained after intraperitoneal injection of bacteria from a logarithmic-phase culture. Infected mice were treated subcutaneously. The doses were selected to allow comparison with the reference compound and to remain below the maximum tolerated dose after double-dose administration. […] Briefly, mouse peritonitis sepsis model for in vivo studies were performed using male ICR mice ([…]) obtained from Envigo Laboratories (Rehovot, Israel). […] Infection was obtained by intraperitoneal injection of a logarithmic phase culture of E. coli 25922 (1.3±0.2×10^6 CFU permouse in 0.3 ml PBS). […] Infection control mice were injected with the PBS vehicle. Mouse survival was monitored for up to 7 days after treatment. Statistical analyses were performed by paired Student's t test, at α=0.05.

[16] = system: E. coli strain 25922; experiment: Checkerboard antibiotic MIC with Compound B; format: cell-based, Escherichia coli
Description: as §3
(§4) Shown in parentheses are calculated sensitization factor, defined as antibiotic's MICs ratio (in absence vs. presence of Compound B) at specified Compound B concentration.

[17] = system: E. coli strain 14384; experiment: Checkerboard antibiotic MIC with Compound B; format: cell-based, Escherichia coli
Description: as §3, §4

[18] = system: E. coli strain 35218; experiment: Checkerboard antibiotic MIC with Compound B; format: cell-based, Escherichia coli
Description: as §3, §4

[19] = system: E. coli strain 16327; experiment: Checkerboard antibiotic MIC with Compound B; format: cell-based, Escherichia coli
Description: as §3, §4

[20] = system: E. coli strain 14182; experiment: Checkerboard antibiotic MIC with Compound B; format: cell-based, Escherichia coli
Description: as §3, §4

[21] = system: E. coli 25922; experiment: Time-kill kinetics in broth versus plasma; format: cell-based, Escherichia coli
Description: (§5) Time-kill kinetics data were determined using 100 μl of bacterial suspension (10^6 CFU/ml), which was added to […] LB containing none of or specified concentrations of the tested compound, antibiotic, and combinations thereof. After the specified exposure time points (37° C. under shaking), aliquots were formed, subjected to serial 10-fold dilutions in saline (0.85% NaCl), and plated for bacterial enumeration after additional 24 hours incubation at 37° C. Time-kill experiments in human and mouse plasma were performed as described elsewhere. The effects of drug delay were assessed in LB, except that bacteria were pre-incubated with the tested compound or antibiotic for the specified time points, centrifuged, and resuspended in fresh LB-containing antibiotic or the tested compound, respectively, and incubated for 3 hours before CFU enumeration.

[22] = system: E. coli 25922; experiment: Simultaneous versus delayed drug exposure assay in LB; format: cell-based, Escherichia coli; details: Compound B 10 μM with 0.06 μg/ml rifampin or 4 μg/ml erythromycin, LB
Description: as §5

[23] = system: Escherichia coli 25922; experiment: Mouse thigh infection model; format: in vivo; details: normal mice inoculated intramuscularly, treated s.c. 1 hour thereafter, CFU 24 hours post-treatment
Description: Mouse thigh infection model was afforded from normal ICR mice, which were inoculated intramuscularly and treated subcutaneously 1 hour thereafter with a tested compound or polymyxin B (PMB; Sigma-Aldrich) as described elsewhere. P values were calculated using a 1-tailed t test (assuming unequal variance). A P value of <0.05 is considered statistically significant.

[24] = system: E. coli 25922; experiment: Ethidium bromide permeability assay; format: cell-based, Escherichia coli; details: t=20 minutes
Description: Ethidium bromide permeability assays were performed as follows: Overnight cultures were adjusted to 1.0 OD (600 nm) and centrifuged for 5 minutes at 15,000 g. Pellets were washed twice with PBS containing 0.5% glucose, resuspended, and incubated for 10 minutes at 37° C. with shaking. A […] suspension was mixed in a black 96-well plate with […] of the tested compound and ethidiumbromide (1 μg/ml), and the fluorescence was recorded (excitation 535 nm, emission 590 nm) for up to 30 minutes at 37° C. with shaking. Data were obtained from at least 2 independent experiments.
(FU denotes fluorescence units; triangles denote Compound B, circles denote PMB, squares denote untreated control; error bars=SD).

[25] = 20 mg/kg body weight; reported; cited from earlier work

CCCCCCCCCC(=O)NC(CCCCN)C(=O)NC(CCCCN)C(=O)NCCCCCCCCCCCC(=O)NC(CCCCN)C(N)=O (centres unmarked) [Compound A] (Decanoyl-KK[12Ado]K-NH2; configuration not given here)
Q, charge at physiological pH [1]: 3 | H, hydrophobicity [2]: 44% | CC50 at 3 h [3]: > 100 µM | cytoplasmic membrane permeabilization [4]: similarly unable to permeabilize the cytoplasmic membrane at least up to approximately 10 μM | outer membrane permeabilization [4]: similarly potent in inducing outer membrane permeabilization | MIC [5]: > 50 µM | MIC [6]: > 50 µM | MIC [7]; 25922: > 50 µM | MIC [8]; 11662: > 50 µM | MIC [9]; 11816: > 50 µM | MIC [10]: > 50 µM | MIC [11]; 1287: > 50 µM | MIC ([12]; CHOLERAESUIS / SC7308): > 50 µM | CAC, critical aggregation concentration [13]: >100 µM

CCCCCCCCCC(=O)NC(CCCNC(=N)N)C(=O)NC(CCCNC(=N)N)C(=O)NCCCCCCCCCCCC(=O)NC(CCCNC(=N)N)C(N)=O (centres unmarked) [Compound C] (Decanoyl-RR[12Ado]R-NH2; configuration not given here)
Q, charge at physiological pH [1]: 3 | H, hydrophobicity [2]: 46% | CC50 at 3 h [3]: 80 ± 1 µM | cytoplasmic membrane permeabilization [4]: somewhat higher tendency for cytoplasmic membrane damaging | MIC ([5]; ST 14028, overnight incubation, read-out: MIC): > 50 µM | MIC ([6]; Kp C2, overnight incubation, read-out: MIC): > 50 µM | MIC ([7]; Ec 25922, overnight incubation, read-out: MIC): 25 µM (≈ 20.9 µg/mL) | MIC ([8]; Pa 11662, overnight incubation, read-out: MIC): 50 µM (≈ 41.9 µg/mL) | MIC ([9]; Pa 11816, overnight incubation, read-out: MIC): 50 µM (≈ 41.9 µg/mL) | MIC [10]: 12.5 µM (≈ 10.5 µg/mL) | MIC ([11]; Kp 1287, overnight incubation, read-out: MIC): 50 µM (≈ 41.9 µg/mL) | MIC ([12]; CHOLERAESUIS / SC7308, SC 7308, overnight incubation, read-out: MIC): > 50 µM | CAC, critical aggregation concentration [13]: >100 µM

CC[C@H]1OC(=O)[C@H](C)[C@@H](O[C@H]2C[C@@](C)(OC)[C@@H](O)[C@H](C)O2)[C@H](C)[C@@H](O[C@@H]2O[C@H](C)C[C@H](N(C)C)[C@H]2O)[C@](C)(O)C[C@@H](C)C(=O)[C@H](C)[C@@H](O)[C@]1(C)O [Erythromycin, erythromycin]
Plasma concentration ([14]; 0.5 h): 3700 ng/mL | Plasma concentration ([14]; 1 h): 2300 ng/mL | Plasma concentration ([14]; 2 h): 400 ng/mL | efficacy of combination vs individual administrations [15]: clearly more effective in combination | Antibiotic MIC in the presence of Compound B ([16]; Compound B 2.5 μM): 2 µg/mL | Antibiotic MIC in the presence of Compound B ([16]; Compound B 5 μM): 0.5 to 1 µg/mL | Antibiotic MIC in the presence of Compound B ([16]; Compound B 10 μM): 0.25 µg/mL | Antibiotic MIC in the presence of Compound B ([16]; Compound B […]): 8 µg/mL | Antibiotic MIC in the presence of Compound B ([17]; Compound B 0 μM): >512 µg/mL | Antibiotic MIC in the presence of Compound B ([17]; Compound B 2.5 μM): 2 µg/mL | Antibiotic MIC in the presence of Compound B ([17]; Compound B 5 μM): 1 µg/mL | Antibiotic MIC in the presence of Compound B ([17]; Compound B 10 μM): 0.5 µg/mL | Antibiotic MIC in the presence of Compound B ([17]; Compound B […]): 64 µg/mL | Antibiotic MIC in the presence of Compound B ([18]; Compound B 2.5 μM): 4 µg/mL | Antibiotic MIC in the presence of Compound B ([18]; Compound B 5 μM): 1 µg/mL | Antibiotic MIC in the presence of Compound B ([18]; Compound B 10 μM): 0.5 µg/mL | Antibiotic MIC in the presence of Compound B ([18]; Compound B […]): 64 µg/mL | Antibiotic MIC in the presence of Compound B ([19]; Compound B 0 μM): 512 µg/mL | Antibiotic MIC in the presence of Compound B ([19]; Compound B 2.5 μM): 4 µg/mL | Antibiotic MIC in the presence of Compound B ([19]; Compound B 5 μM): 1 µg/mL | Antibiotic MIC in the presence of Compound B ([19]; Compound B 10 μM): 0.5 µg/mL | Antibiotic MIC in the presence of Compound B ([19]; Compound B […]): 64 µg/mL | Antibiotic MIC in the presence of Compound B ([20]; Compound B 2.5 μM): 16 µg/mL | Antibiotic MIC in the presence of Compound B ([20]; Compound B 5 μM): 4 µg/mL | Antibiotic MIC in the presence of Compound B ([20]; Compound B 10 μM): 1 µg/mL | effect on CFU count ([21]; LB broth, 24-hours end point, erythromycin 3 μg/ml combined with Compound B 0.6 μM): did not alter the CFU count | time to accomplish the CFU reduction (more than 3 log units) ([21]; human plasma, antibiotic with Compound B 0.6 μM): ≤ 3 hours | combined action with Compound B ([21]; mouse plasma, 24 hours end point, Compound B 10 μM with rifampin 1 μg/ml or erythromycin 3 μg/ml): expressed synergism of action | effect of delayed exposure on sensitization by Compound B [22]: delay by up to 60 (but not 120) minutes revealed maintenance of the sensitization activity

polymyxin B [PMB]
reduction of the number of inoculated E. coli [23]: 64% | CM permeability to ethidium bromide [24]: increased significantly more than Compound B | mortality [25]: zero
